Assay results: article PMC3805573, “Methylglyoxal Evokes Pain by Stimulating TRPA1” (PLoS ONE, 2013)

Columns and labels:
TRPA1 = test: Excised inside-out patches, TRPA1 channel activity; format: cell-based; details: inside-out configuration, applied to intracellular face
Protocol: DRG neurons and TRPA1 CHO cells were studied under voltage-clamp conditions using an Axopatch 200B amplifier and pClamp 10.0 software (Molecular Devices, Sunnyvale, CA). Except where stated otherwise, whole cell recordings were performed at a holding potential of –60 mV using an extracellular solution with the composition described above for [Ca^2+]i measurements. Borosilicate glass pipettes (2–5 MΩ, 75–80% series resistance compensation) were filled with (in mM) 140 KCl, 1 CaCl2, 2 MgATP, 10 EGTA, and 10 HEPES buffered to pH 7.4 (KOH). Excised inside-out patches were recorded using a Ca^2+-free solution containing (in mM) 140 NaCl, 5 KCl, 1 MgCl2, 10 HEPES and 1 EGTA, pH 7.4 (NaOH) in the pipettes and perfused with 140 KCl, 2 MgATP, 1 EGTA, and 10 HEPES (pH 7.4). DRG neurons were studied using an intracellular solution containing (in mM) 140 CsCl, 1 CaCl2, 2 MgATP, 10 EGTA and 10 HEPES, pH 7.4 (CsOH). Drugs were applied by local microperfusion with a rapid solution changer (RSC-200, Biologic, Claix, France).

untransfected CHO cells = test: [Ca2+]i in untransfected CHO cells; format: cell-based; details: untransfected CHO cells or absence of extracellular Ca2+ (data not shown)
Protocol: (§1) Untransfected CHO cells and CHO cells expressing mouse or human TRPA1 were grown in MEM Glutamax or AQ medium supplemented with penicillin (100 U/ml), streptomycin (100 µg/ml), and FCS (10%). Plasmids encoding mutated TRPA1 channels were kindly provided by Dr. Ardem Patapoutian. All media, serum and antibiotics were from Invitrogen (Paisley, UK) or Sigma (Poole, UK).
(§2) Cells were loaded with 2 µM Fura-2 AM (Molecular Probes, Paisley, UK) in the presence of 1 mM probenecid for ∼1 hr. The experiments were performed in a physiological saline solution containing (in mM) 140 NaCl, 5 KCl, 10 glucose, 10 HEPES, 2 CaCl2, and 1 MgCl2, buffered to pH 7.4 with NaOH. Compounds were applied to cells by local continuous microperfusion of solution through a fine tube placed in close proximity of the cells studied. Images of a group of cells were captured every 2 sec using 340 and 380 nm excitation wavelengths with emission measured at 520 nm with a microscope based imaging system (PTI, New Jersey). […]
(§3) Changes in intracellular calcium ([Ca^2+]i) in response to agonists were determined in TRPA1 expressing CHO cells and MDCK cells using a Flexstation 3 (Molecular Devices). […] Basal emission ratios (340 nm/380 nm) were measured and changes in ratio determined at various times after compound addition.

MDCK cells = test: [Ca2+]i-measurements in MDCK cells; format: cell-based, Canine
Protocol: MDCK cells were grown in DMEM (Invitrogen) supplemented with 5% fetal bovine serum, 100 U/ml penicillin and 100 µg/ml streptomycin. […] The experiments were performed in a physiological saline solution containing (in mM) 140 NaCl, 5 KCl, 10 glucose, 10 HEPES, 2 CaCl2, and 1 MgCl2, buffered to pH 7.4 with NaOH. Compounds were applied to cells by local continuous microperfusion of solution through a fine tube placed in close proximity of the cells studied. […] Analyses of emission intensity ratios at 340 nm/380 nm excitation (R, in individual cells) were performed using the ImageMaster suite of software. […] Cells grown in 96 well black walled plates (Costar, Tewksbury, MA) were loaded with Fura 2-AM in the presence of 1 mM probenecid at 37°C for 1–1.5 hours and assays were carried out at 25°C. Basal emission ratios (340 nm/380 nm) were measured and changes in ratio determined at various times after compound addition.

beta cells = test: [Ca2+]i-responses in pancreatic beta cells; format: cell-based, mice; details: MG 0.5 mM (Fig. 7A)
Protocol: Mouse islets of Langerhans were isolated from the exocrine pancreas by collagenase digestion (1 mg/ml, type XI, Sigma, Poole, UK). Islets were dissociated by 15 min incubation in trypsin (0.5%, Sigma, Poole, UK) followed by trituration through a flame polished glass Pasteur pipette and the islet cells were seeded on glass cover slips.
Cells were loaded with 2 µM Fura-2 AM (Molecular Probes, Paisley, UK) in the presence of 1 mM probenecid for ∼1 hr. The experiments were performed in a physiological saline solution containing (in mM) 140 NaCl, 5 KCl, 10 glucose, 10 HEPES, 2 CaCl2, and 1 MgCl2, buffered to pH 7.4 with NaOH. Compounds were applied to cells by local continuous microperfusion of solution through a fine tube placed in close proximity of the cells studied. Images of a group of cells were captured every 2 sec using 340 and 380 nm excitation wavelengths with emission measured at 520 nm with a microscope based imaging system (PTI, New Jersey). Analyses of emission intensity ratios at 340 nm/380 nm excitation (R, in individual cells) were performed using the ImageMaster suite of software.

[1] = tested on: human TRPA1 C621S, C641S or C665S; test: [Ca2+]i-responses of human TRPA1 point mutants C621S, C641S, C665S; format: cell-based; details: human TRPA1 single point mutants vs wildtype
Protocol: as §1, §2, §3

SMILES: CC(=O)C=O [MG, methylglyoxal]
- EC50 (TRPA1): 0.074 mM
- effect on [Ca2+]i (untransfected CHO cells): had no effect
- [Ca2+]i-influx response (MDCK cells; 5 mM): evoked [Ca^2+]i-influx responses
- EC50 (MDCK cells; read-out: EC50, [Ca2+]i-responses): 2.2 ± 0.4 mM
- [Ca2+]i-responses in beta cells (beta cells): evoked [Ca^2+]i-responses in a subpopulation of tolbutamide sensitive beta cells
- number of MG sensitive cells and response amplitude, Trpa1+/+ vs Trpa1-/- cultures (beta cells): similar
- effect of substitutions C621S, C641S, C665S on potency of MG [1]: None of these amino acid substitutions affected the potency of MG significantly
